From US4689340A, “Trihaloimidazole insecticide” (Sumitomo Chemical Company, Limited, priority 1985, dated 1987)
Where two headings read alike, the source gives them in different places.

Tests used:
[1] = tested on: German cockroaches (Blattella germanica); test: Heating fumigant test in (183 cm)^3 Peet Grady's chamber (Test Example 4); format: in vivo, strain low susceptible to pyrethroids; conditions: for mortality at 10 mg/m3, 10 mg/m3: Blattella germanica, 72 h
Experimental: (§1) One hundred mg of each of the present compounds (1) to (7) is dissolved in a proper amount of acetone, and a porous ceramic plate of 4.0 cm×4.0cm×1.2 cm (thick) is impregnated with this solution to obtain the heating fumigant of each compound.
At the bottom of a (183 cm)^3 Peet Grady's chamber (6.1 m^3) were placed three polyethylene cups (inside diameter, 10 cm; height, 8 cm) coated with butter at the inside surface, and 20 adult German cockroaches (10 males and 10 females) (Blattella germanica), which belong to a strain low susceptible to pyrethroids were liberated in each cup. An electric heater was set at the center of the bottom of the chamber, and each of the porous ceramic plates impregnated with the present compounds and the control according to Formulation example 8 (61 mg/plate: 10 mg/m^3), was placed thereon. The plate was heated to about 200° C. by applying current for 70 minutes. The number of knocked-down insects with the lapse of time was examined to obtain KT50 value (50% knocked-downtime). Eighty minutes after current application was started, the cups containing the test insects were taken out of the chamber, and the test insects were bred on water and bait. After three days, the number of the dead and alive was examined to obtain a mortality.

[2] = tested on: German cockroach (Blattela germanica); test: Oil spray direct spray knock-down test, susceptible strain (Test Example 5); format: in vivo; conditions: 0.6 ml of 0.1% oil spray
Excerpt: (§2) […] of the present compound (1), 2 parts of xylene and 97.8 parts of kerosene are mixed to obtain an oil spray.
(§3) Two groups of five male and five femlae adults per group of German cockroach (Blattela germanica), one group belonging to a susceptible strain and the other belonging to a strain low susceptible to pyrethroids,were liberated in a polyethylene cup of 9 cm in diameter thinly coated with vaseline at the inside surface. After covering the cup with a 16-mesh nylon gauze, the cup was placed on the bottom of a glass cylinder (inside diameter, 10 cm; height, 37 cm). Thereafter 0.6 ml of each of the 0.1% oil sprays of the present compounds and the control, prepared according to Formulation example 1, was directly sprayed onto the adults by means of a spray gun under 0.6 atmospheric pressure from the top of the cylinder. The number of knocked-down insects with the lapse of time was counted to obtain KT50 value (50% knocked-down time) (two replications).

[3] = tested on: German cockroach (Blattela germanica); test: Oil spray direct spray knock-down test, strain low susceptible to pyrethroids (Test Example 5); format: in vivo; conditions: 0.6 ml of 0.1% oil spray
Excerpt: as §2, §3

[4] = tested on: German cockroach (Blattella germanica); test: Insecticidal activity test to German cockroach, topical application (Test Example 1-2); format: in vivo, strain low susceptible to pyrethroids; conditions: 48 h, read-out: Insecticidal activity on German cockroaches LD50 value (b)
Experimental: (§4) The present compounds and the control were each diluted with corn oil to prescribed concentrations, and the dilute solutions obtained were forcedly administered to the stomach of six-week old male mice of ICR strain weighing 24 to 31 g, to which no food had been given for about 20 hours, at a rate of 0.1 ml/10 g of body weight. […] The number of the dead and alive was examined by seven day's observation to obtain LD50 value (50% lethal dosage) (5 mice per group). 1-2 Insecticidal activity test to German cockroach
The present compounds and the control were each diluted with acetone to prescribed concentrations and topically applied to the ventral thorax of the male adults of German cockroach (Blattella germanica) which belong to a strain low susceptible to pyrethroids, at a rate of 1 μl/adult. After application, the adults were bred on bait and water in a polyethylene cup. After two days, the number of the dead and alive was examined to obtain LD50 value (10 adults per group; two replications).

[5] = tested on: German cockroach (Blattella germanica); test: Heating fumigant test in (70 cm)^3 glass chamber (Test Example 3); format: in vivo, strain low susceptible to pyrethroids; conditions: for mortality at 40 mg/m3, 40 mg/m3: Blattella germanica, 48 h
Experimental: as §1
Four polyethylene cups (inside diameter, 10 cm; height, 8 cm) coated with butter at the inside surface were set at the four corners, respectively, of the bottom of a (70 cm)^3 glass chamber (0.34 m^3). Ten male adults per group of German cockroach (Blattella germanica) which belongs to a strain low susceptible to pyrethroids, were liberated in each of two polyethylene cups, and 10 female adults per group of the insect were liberated in each of the remaining two. An electric heater was set at the center of the bottom of the glass chamber, and each of the porous ceramic plates impregnating the present compounds and the control according to Formulation example 8 (13.7 mg/plate: 40 mg/m^3), was placed thereon. The plate was heated to about 200° C. by applying current for 20 minutes. The number of knocked-down insects with the lapse of time was examined to obtain KT50 (50% knocked-down time). Eighty minutes after current application was started, the cups containing the test insects were taken out of the chamber, and the test insects were bred on water and bait. After two days, the number of the dead and alive was examined to obtain a mortality.

[6] = tested on: smoky brown cockroach (Periplaneta fuliginosa); test: Topical application insecticidal test on smoky brown cockroach (Test Example 2); format: in vivo; conditions: Validiblatta fuliginosa, 48 h
Experimental: The present compounds and the control were each diluted with acetone and topically applied to the ventral thorax of the male adults of smoky brown cockroach (Periplaneta fuliginosa) at a rate of 10μg a.i./adult. After application, the adults were bred on bait and water in a polyethylene cup. After two days, the number of the dead and alive was examined to obtain a mortality (5 adults per group; two replications).

[7] = Acute Oral Toxicity Test to Mice (Test Example 1-1); conditions: mouse, in vivo; for selectivity ratio: po, mice oral LD50 (a) / German cockroach LD50 (b), read-out: Safety coefficient (a)/(b); for LD50 at 168 h: oral (stomach), corn oil, male ICR mice, 7 days' observation
Experimental: 1-1 Acute Oral Toxicity Test to Mice
as §4
The results of the acute oral toxicity test to mice and insecticidal activity test to German cockroaches on the test compounds are shown in Table 3. It is apparent from the table that the present compounds have the characteristics that the toxicity to the warm-blooded animal is low and the insecticidal activity on the insect pest is high. In order to make this characteristics clearer, the following safety coefficient was obtained from the test results. [formula]

cockroach = test: Insecticidal activity as cockroach-controlling insecticides (general statement); format: in vivo; conditions: among the listed cockroach-controlling compounds
[8] = ceramic plate heating fumigant, 61 mg/plate: 10 mg/m^3, 6.1 m^3 chamber, after three days, read-out: Mortality (%)
[9] = ceramic plate heating fumigant, 61 mg/plate: 10 mg/m^3, 6.1 m^3 chamber
[10] = ceramic plate heating fumigant, 13.7 mg/plate: 40 mg/m^3, 0.34 m^3 chamber, after two days, read-out: Mortality (%)
[11] = ceramic plate heating fumigant, 13.7 mg/plate: 40 mg/m^3, 0.34 m^3 chamber

For CCCCOCn1c(Cl)nc(Cl)c1Cl [(A)], the mortality at 10 mg/m3, 10 mg/m3 [1, 8] was 8%, the “KT50 value (50% knocked-down time)” value [1, 9] was over 80 min and the “Susceptible strain KT50 value” [2] was over 20 min. The “Strain low susceptible to pyrethroids KT50 value” (“Strain low susceptible” for short) [3] was over 20 min and the LD50 [4] was over 10 mg/kg.

For Clc1nc(Cl)n(COCCCCCCBr)c1Cl [(6), 1-(6-bromohexyloxymethyl)-2,4,5-trichloroimidazole], the mortality at 10 mg/m3, 10 mg/m3 [1, 8] was 95% and the “KT50 value (50% knocked-down time)” value [1, 9] was 41 min.

For Clc1nc(Cl)n(COCCCCCBr)c1Cl [(5)], the mortality at 40 mg/m3, 40 mg/m3 [5, 10] was 87.5% and the “KT50 value (50% knocked-down time)” value [5, 11] was 68 min.

In the case of ClCCCCOCn1c(Cl)nc(Cl)c1Cl [(2), 1-(4-chlorobutoxymethyl)-2,4,5-trichloroimidazole], the mortality at 0.01 mg [6] is reported as 100%, the mortality at 40 mg/m3, 40 mg/m3 [5] is reported as 100% and the “KT50 value (50% knocked-down time)” value [5, 11] is reported as 41 min. For the same molecule, the mortality at 10 mg/m3, 10 mg/m3 [1] was 80%, the “KT50 value (50% knocked-down time)” value [1, 9] was 63 min and the LD50 [4] was 6.2 mg/kg. For the same molecule, the selectivity ratio [7] was over 50 and the LD50 at 168 h [7] was over 300 mg/kg.

With Clc1nc(Cl)n(COCCCCBr)c1Cl [(1), 1-(4-bromobutoxymethyl)-2,4,5-trichloroimidazole] the mortality at 0.01 mg [6] was 80%, the mortality at 40 mg/m3, 40 mg/m3 [5] was 100% and the “KT50 value (50% knocked-down time)” value [5, 11] was 28 min. For the same molecule, the mortality at 10 mg/m3, 10 mg/m3 [1] was 100%, the “KT50 value (50% knocked-down time)” value [1, 9] was 38 min and the “Susceptible strain KT50 value” [2] was 1.1 min. The “Strain low susceptible” value [3] was 0.70 min, the LD50 [4] was 6.4 mg/kg and the “insecticidal activity (in words)” value (cockroach) was “most superior insecticidal activity”. The selectivity ratio [7] was over 50 and the LD50 at 168 h [7] was over 300 mg/kg.

In the case of BrCCCCOCn1c(Br)nc(Br)c1Br [(3), 1-(4-bromobutoxymethyl)-2,4,5-tribromoimidazole], the mortality at 40 mg/m3, 40 mg/m3 [5, 10] is reported as 100%, the “KT50 value (50% knocked-down time)” value [5, 11] is reported as 45 min and the mortality at 10 mg/m3, 10 mg/m3 [1, 8] is reported as 90%. The “KT50 value (50% knocked-down time)” value [1, 9] was 77 min, the “Susceptible strain KT50 value” [2] was 1.1 min and the “Strain low susceptible” value [3] was 1.2 min.

For ClCCOCn1c(Br)nc(Br)c1Br [(D)], the mortality at 10 mg/m3, 10 mg/m3 [1] was 3%, the “KT50 value (50% knocked-down time)” value [1, 9] was over 80 min and the “Susceptible strain KT50 value” [2] was over 20 min. For the same molecule, the “Strain low susceptible” value [3] was “≈ 20 minute”, the LD50 [4] was 9.4 mg/kg and the selectivity ratio [7] was 18. For the same molecule, the LD50 at 168 h [7] was 170 mg/kg.

In the case of CCCCCOCn1c(Cl)nc(Cl)c1Cl [(B)], the mortality at 0.01 mg ([6]; 10μg a.i./adult, male adults, after two days, read-out: Mortality (%)) is reported as 40%, the mortality at 40 mg/m3, 40 mg/m3 [5, 10] is reported as 47.5% and the “KT50 value (50% knocked-down time)” value [5, 11] is reported as over 80 min. For the same molecule, the mortality at 10 mg/m3, 10 mg/m3 [1, 8] was 0%, the “KT50 value (50% knocked-down time)” value [1, 9] was over 80 min and the “Susceptible strain KT50 value” [2] was over 20 min. The “Strain low susceptible” value [3] was over 20 min and the LD50 [4] was over 20 mg/kg.

With CNC(=O)Oc1ccccc1OC(C)C [(E), Propoxur] the mortality at 40 mg/m3, 40 mg/m3 [5, 10] was 0%, the “KT50 value (50% knocked-down time)” value [5, 11] was over 80 min and the mortality at 10 mg/m3, 10 mg/m3 [1, 8] was 0%. The “KT50 value (50% knocked-down time)” value [1, 9] was over 80 min, the “Susceptible strain KT50 value” [2] was 6.9 min and the “Strain low susceptible” value [3] was 10 min. The LD50 [4] was 7 mg/kg, the selectivity ratio [7] was 5.6 and the LD50 at 168 h [7] was 39 mg/kg.

With ClCCCCOCn1c(Br)nc(Br)c1Br [(4), 1-(4-chlorobutoxymethyl)-2,4,5-tribromoimidazole] the mortality at 40 mg/m3, 40 mg/m3 [5, 10] was 90%, the “KT50 value (50% knocked-down time)” value [5, 11] was 58 min and the “Susceptible strain KT50 value” [2] was 2.1 min. For the same molecule, the “Strain low susceptible” value [3] was “≈ 0.5 minute”.

In the case of BrCCOCn1c(Br)nc(Br)c1Br [(C)], the mortality at 10 mg/m3, 10 mg/m3 [1] is reported as 40%, the “KT50 value (50% knocked-down time)” value [1, 9] is reported as over 80 min and the “Susceptible strain KT50 value” [2] is reported as over 20 min. For the same molecule, the “Strain low susceptible” value [3] was at least 20 min, the LD50 [4] was 7 mg/kg and the selectivity ratio [7] was 16. The LD50 at 168 h [7] was 110 mg/kg.

In the case of BrCCCCCCOCn1c(Br)nc(Br)c1Br [(7), 1-(6-bromohexyloxymethyl)-2,4,5-tribromoimidazole], the mortality at 40 mg/m3, 40 mg/m3 [5, 10] is reported as 92.5%, the “KT50 value (50% knocked-down time)” value [5, 11] is reported as 65 min and the “Susceptible strain KT50 value” [2] is reported as 2.3 min. The “Strain low susceptible” value [3] was 0.72 min.
